Laboratory results: publication PMC6338644 (The FASEB Journal, 2018)
Where “and” joins values, the source holds several entries; their conditions need not be identical. Equal values may be shown once. Where a name gives a salt, the structure may show the parent alone. Read-outs that look alike come from different tables or passages of the source.

What was measured:
[1] = target: T1, His-tagged human SHIP2 phosphatase domain (Homo sapiens, UniProt O15357); experiment: Malachite green phosphate assay, recombinant SHIP2 phosphatase domain (High Throughput Biomedicine Unit, 384-well); assay type: biochemical
T1 construct: we produced a His-tagged human SHIP2 phosphatase domain; His; made in house
T1 sequence (O15357 419-732 limits assumed): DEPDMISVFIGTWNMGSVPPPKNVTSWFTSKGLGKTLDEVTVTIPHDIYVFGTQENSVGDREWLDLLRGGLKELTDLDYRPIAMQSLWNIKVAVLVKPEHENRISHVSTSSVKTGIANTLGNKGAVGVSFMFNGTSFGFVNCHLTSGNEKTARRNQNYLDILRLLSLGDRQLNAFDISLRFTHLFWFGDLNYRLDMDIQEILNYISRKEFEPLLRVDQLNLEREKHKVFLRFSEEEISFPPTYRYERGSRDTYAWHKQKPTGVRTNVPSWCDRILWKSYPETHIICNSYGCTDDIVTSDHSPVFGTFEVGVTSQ
Protocol: (§1) Recombinant His-tagged human SHIP2 and SHIP1 phosphatase domains were produced as previously described ([17]). […] Immunocomplexes were bound to protein G-Sepharose beads at +4°C for 2 h and washed 3 times with malachite green phosphate assay buffer {10 mM 4-(2-hydroxyethyl)-1-piperazineethanesulfonic acid (HEPES), pH 7.25, 6 mM MgCl2, 0.1% 3-[(3-cholamidopropyl)dimethylammonio]-1-propanesulfonate (CHAPS), 250 mM sucrose, and 0.25 mM EDTA}.
(§2) The catalytic activities of the recombinant SHIP2 and SHIP1 phosphatase domains were determined by malachite green phosphate assay at the High Throughput Biomedicine Unit (University of Helsinki) using D-myo-PI(3,4,5)P3 (Echelon Biosciences, Salt Lake City, UT, USA). Different volumes, resulting in desired final concentrations of inhibitors, were transferred to the wells of 384-well plates by using the Echo550 acoustic dispenser (Labcyte, San Jose, CA, USA). Recombinant protein (100 ng) in reaction buffer {10 mM HEPES, pH 7.25, 6 mM MgCl2, 0.1% CHAPS, 250 mM sucrose, and 0.25 mM EDTA} was placed in each well (7.5 µl), and the plates were preincubated at room temperature for 15 min. The phosphatase reaction was started by adding PI(3,4,5)P3 diluted in the reaction buffer (7.5 µl) to each well to reach a final concentration of 100 µM PI(3,4,5)P3 in the 15 µl reaction volume. The plates were incubated at room temperature for 20 min, after which, 15 µl BIOMOL green reagent (Biomol, Plymouth Meeting, PA, USA) was added to each well, and then the plates were incubated for another 25 min at room temperature. Absorbance was measured at 620 nm using a Pherastar FS plate reader (BMG Labtech, Offenburg, Germany). For the manual malachite green phosphate assay in 96-well plates [see Fig. 1; and activity measurement of phosphatase and tensin homolog (PTEN; Signalchem, Richmond, BC, Canada)], the reaction volume was increased to 50 µl, and 100 µl Biomol Green Reagent was added. The catalytic activity of SHIP2 immunoprecipitated from cell and tissue lysates was determined as in Saurus et al. ([22]), omitting SHIP2 inhibitors in lysis buffer, immunoprecipitation reaction, wash, and assay buffers. AS1949490 was synthesized, as described in Supplemental Fig. S1A, or purchased from Tocris Bioscience (Bristol, United Kingdom).

[2] = target: T2, His-tagged human SHIP1 phosphatase domain (Homo sapiens, UniProt Q92835); experiment: Malachite green phosphate assay, recombinant SHIP1 phosphatase domain (High Throughput Biomedicine Unit); assay type: biochemical; conditions: for IC50: purified His-tagged phosphatase domain
T2 construct: Recombinant His-tagged human SHIP2 and SHIP1 phosphatase domains were produced as previously described; His; made in house
T2 sequence (Q92835 399-715 limits assumed): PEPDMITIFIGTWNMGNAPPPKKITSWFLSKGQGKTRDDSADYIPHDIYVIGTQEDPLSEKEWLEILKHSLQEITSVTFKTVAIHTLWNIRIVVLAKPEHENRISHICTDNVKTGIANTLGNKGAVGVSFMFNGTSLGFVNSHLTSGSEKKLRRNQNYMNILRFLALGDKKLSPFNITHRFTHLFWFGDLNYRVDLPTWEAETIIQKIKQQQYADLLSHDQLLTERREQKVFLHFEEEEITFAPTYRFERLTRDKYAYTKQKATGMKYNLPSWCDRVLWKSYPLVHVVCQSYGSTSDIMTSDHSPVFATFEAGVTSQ
Protocol: as §1, §2

[3] = target: T3, phosphatase and tensin homolog (PTEN) (Homo sapiens, UniProt P60484); experiment: Manual malachite green phosphate assay, PTEN activity; assay type: biochemical
T3 construct: purchased Signalchem

[4] = tested on: SHIP2 immunoprecipitated from the lysates of L6 myotubes; assay type: cell-based, rat; conditions: 20–24 h
Protocol: Immortalized human podocytes were maintained as previously described ([10]). […] Podocytes were lysed as previously described ([21]).
as §1, §2
Hydrogen bond is shown in green. Hydrophobic residues are shown in gray, positive-charged residues in blue, and negative-charged residues in red. […] The catalytic activity of SHIP2 was measured by manual malachite green phosphate assay.

[5] = inhibitors at 100 µM concentration, 100 µM

T3 sequence (P60484 whole entry, species assumed): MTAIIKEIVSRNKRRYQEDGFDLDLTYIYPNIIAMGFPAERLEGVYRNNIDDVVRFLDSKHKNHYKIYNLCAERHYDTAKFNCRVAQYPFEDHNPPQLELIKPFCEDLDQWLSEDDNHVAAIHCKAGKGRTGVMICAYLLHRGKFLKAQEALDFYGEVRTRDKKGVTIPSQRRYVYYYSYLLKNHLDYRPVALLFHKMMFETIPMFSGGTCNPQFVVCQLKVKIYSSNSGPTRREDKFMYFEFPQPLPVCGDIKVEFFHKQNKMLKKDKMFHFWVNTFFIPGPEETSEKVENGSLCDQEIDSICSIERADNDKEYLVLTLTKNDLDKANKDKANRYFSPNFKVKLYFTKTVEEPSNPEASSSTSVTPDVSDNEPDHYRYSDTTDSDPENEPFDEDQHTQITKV

Row | inhibition at 100 µM ([1]; inhibitors at 100 µM concentration, read-out: SHIP2 Inhibition efficiency) | IC50 ([1]; purified His-tagged phosphatase domain, 100 µM PI(3,4,5)P3) | inhibition of SHIP1 (in words) [2] | inhibition at 100 µM ([2]; inhibitors at 100 µM concentration, read-out: SHIP1 Inhibition efficiency) | inhibition of PTEN (in words) [3] | PTEN IC50 ([3]; manual assay) | SMILES | SHIP2 Inhibition efficiency [1, 5] | SHIP1 Inhibition efficiency [2, 5] | IC50 [2] | PTEN Inhibition efficiency ([3]; inhibitors at 100 µM concentration) | IC50 ([3]; manual assay) | reduction of SHIP2 activity in myotubes ([4]; 20 µM) | reduction of SHIP2 activity in myotubes ([4]; 1 mM) | SHIP2 overexpression-induced SHIP2 activity in myotubes ([4]; L6 myotubes overexpressing SHIP2, 1 mM)
1 |  |  |  |  |  |  | C[C@H](NC(=O)c1sccc1OCc1ccc(Cl)cc1)c1ccccc1 [AS1949490] | 26% and 25.9% | 12% and 11.8% | > 50 µM | 0% | > 50 µM | ~30% |  | 
2 | 39.4% | 6 µM | does not inhibit | 11.1% | does not inhibit | >50 µM | CN(C)C(=N)N=C(N)N [Metformin, 1,1-Dimethylbiguanide hydrochloride] |  |  | > 50 µM |  |  | ~30% | 24% | to the level in the control
